Test results: ChEMBL document CHEMBL1201862, “PubChem BioAssay data set” (2004)
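Method: 48-hour compound exposure of cells in 96-well plates, five concentrations, linear interpolation of endpoints. GI50: concentration for 50% inhibition of growth.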 Activity calls are given as the source filed them. No stated cut-off is given here; in the data, active = GI50 up to about 1.1 µM and inactive = higher.

Columns and labels:
Assay in all cases: growth of human tumour cells (NCI), 48 h
A549 = system: A549
RPMI-8226 = system: RPMI-8226
MOLT-4 = system: MOLT-4
M14 = system: M14
CAKI-1 = system: CAKI-1
HT-29 = system: HT-29
SK-MEL-5 = system: SK-MEL-5
HL-60 = system: HL-60
TK-10 = system: TK-10
CCRF-CEM = system: CCRF-CEM
SNB-19 = system: SNB-19
KM12 = system: KM12
LOX IMVI = system: LOX IMVI
NCI-H460 = system: NCI-H460
ACHN = system: ACHN

Measured: GI50

Cc1nn2c3c(nnc2c1C#N)C(=O)NN=C(N)S3
inactive: A549 > 100 µM | RPMI-8226 > 100 µM | MOLT-4 > 100 µM | M14 > 100 µM | CAKI-1 > 100 µM | HT-29 > 100 µM | SK-MEL-5 > 100 µM | HL-60 > 100 µM | TK-10 > 100 µM | CCRF-CEM > 100 µM | SNB-19 > 100 µM | KM12 > 100 µM

O=C(CSc1nnc(-c2ccc(/N=C\c3ccc(Cl)cc3)cc2)o1)Nc1ccccc1[N+](=O)[O-]
inactive: A549 > 100 µM | RPMI-8226 > 100 µM | MOLT-4 > 100 µM | LOX IMVI > 100 µM | M14 > 100 µM | NCI-H460 > 100 µM | HT-29 > 100 µM | SK-MEL-5 > 100 µM | HL-60 > 100 µM | TK-10 > 100 µM | CCRF-CEM > 100 µM | ACHN > 100 µM | SNB-19 > 100 µM | KM12 > 100 µM

CC1CC2C(=O)N(c3ccccc3)C(=O)C2c2c1c1ccccc1n2Cc1ccccc1 (stereo not given)
inactive: A549 32.1 µM | RPMI-8226 > 100 µM | MOLT-4 58.5 µM | LOX IMVI > 100 µM | M14 > 100 µM | NCI-H460 > 100 µM | CAKI-1 > 100 µM | HT-29 > 100 µM | SK-MEL-5 > 100 µM | HL-60 10.5 µM | CCRF-CEM > 100 µM | ACHN 39.1 µM | KM12 7.52 µM

C1=C(c2ccccc2)CN(c2ccccc2)OC1
inactive: A549 85.9 µM | RPMI-8226 44.8 µM | MOLT-4 74.5 µM | LOX IMVI > 100 µM | M14 83.8 µM | NCI-H460 > 100 µM | CAKI-1 56.5 µM | HT-29 44.4 µM | HL-60 54.8 µM | TK-10 > 100 µM | CCRF-CEM > 100 µM | ACHN 63.2 µM | SNB-19 > 100 µM | KM12 > 100 µM

NC(=O)N/N=C(\CCC(=O)N(Cc1ccccc1)Cc1ccccc1)CC(=O)c1ccc(F)cc1
inactive: A549 37.1 µM | MOLT-4 > 100 µM | LOX IMVI > 100 µM | M14 > 100 µM | NCI-H460 > 100 µM | CAKI-1 > 100 µM | HT-29 > 100 µM | SK-MEL-5 > 100 µM | HL-60 > 100 µM | TK-10 > 100 µM | CCRF-CEM > 100 µM | ACHN > 100 µM | SNB-19 > 100 µM | KM12 > 100 µM

CCOC(=O)/C(Br)=C1\OC(=O)c2ccccc2-c2ccccc21
inactive: A549 40.3 µM | RPMI-8226 27.9 µM | MOLT-4 25.9 µM | LOX IMVI 36.8 µM | M14 40.4 µM | CAKI-1 54.3 µM | HT-29 33.2 µM | SK-MEL-5 37.1 µM | HL-60 13.3 µM | TK-10 60.7 µM | CCRF-CEM 23.3 µM | ACHN 52.6 µM | KM12 34.7 µM
